One data set in a line: tolerability and safety. To be noted: in vivo.
A further data set deals with dopamine uptake. The text has this:
(§1) Leonard-BE, “Noradrenaline in basic models of depression.” European-Neuropsychopharnacol. April 1997; 7 Suppl 1: S11-6; discussion S71-3.

The next data set has as its system monoamine oxidase (MAO).
From the text: as §1

The test system of another data set is norepinephrine uptake. As to conditions: compared with classical tricyclic antidepressants.
From the text: as §1

The subject of a further data set is serotonin uptake.
From the text: as §1

Data set [1] relates to muscarinic cholinergic receptors. The data set is described as follows: interaction with muscarinic cholinergic receptors. It is filed as binding.
Another data set concerns I-adrenerigic receptors. The data set is described as follows: interaction with I-adrenerigic receptors. It is filed as binding.
For data set [2], the system named is patients with a DSM-III-R diagnosis of Obsessive Compulsive Disorder. Kind of data set: trial in patients with Obsessive Compulsive Disorder. It is filed as in vivo, human. As to conditions: of 10 OCD patients, 6 mg first week then 8 mg, 3 to 4 weeks. The text has this:
This study is provided to illustrate the usefulness of using reboxetine as a treatment for OCD and the invention described herein should not be considered limited by this example.

The subject of another data set is 8-OH-DPAT hypothermia. As to conditions: in vivo; cited from earlier work.

Protocol for tolerability and safety: It is more commonly provided in dosages of from 1 to 20 mg per patient per day. […] Other adverse reactions are possible. […] Both compounds may be administered by any suitable method including a convenient oral dosage form. A preferred method is oral dosing twice a day.

Consider `CC(C)NCC(O)COc1cccc2[nH]ccc12` (stereo not drawn) [Pindolol, 1-(1H-Indol-4-yloxy)-3-[(1-methylethyl)amino]-2-propanol], for which the tolerability / safety result in the data set “tolerability and safety” is given as “fairly safe”.

Turning to `CCOc1ccccc1OC(c1ccccc1)C1CNCCO1` (stereo not drawn) [reboxetine], the “dopamine uptake inhibitory activity” value in the data set on dopamine uptake is “no dopamine uptake inhibitory activity”. For the same compound, the “monoamine oxidase (MAO) inhibitory activity” value in the data set with monoamine oxidase (MAO) is “devoid”. Also, the “inhibition of the reuptake of noradrenaline” value in the data set on norepinephrine uptake is reported as “inhibitory properties of classical tricyclic antidepressants”. Further, the “serotonin uptake inhibitory activity” value with serotonin uptake is “only marginal”. The “interaction with muscarinic cholinergic receptors” value in data set [1] is “without showing any appreciable interaction”. Moreover, in the data set with I-adrenerigic receptors, the “interaction with I-adrenerigic receptors” value is “without showing any appreciable interaction”. Also, in data set [2], the “patients judged minimally improved at CGI last assessment” value was 2, the “patients judged much improved at CGI last assessment” value was 4, the “patients judged very much improved at CGI last assessment” value is on record as “one” and the “patients unchanged at CGI last assessment” value is given as 3. Further, the “effect in the 8-OH-DPAT hypothermia test” value in the data set with 8-OH-DPAT hypothermia is given as “ineffective”.

(Values after US6500827B2, “Drug combinations” (Pharmacia & Upjohn Company, priority 1998, dated 2002).)
